In patent US20230092389A1, “UNIT DOSES, AEROSOLS, KITS, AND METHODS FOR TREATING HEART CONDITIONS BY PULMONARY ADMINISTRATION” (InCarda Therapeutics, Inc., priority 2017, published 2023):
Read-outs that look alike come from different tables or passages of the source.

System: healthy volunteers
Conditions: in vivo
Description: 3 cohorts of subjects, in total 34 healthy adult volunteers, were recruited for Part A study.
Part B was an open label non-randomized crossover in a cohort of 6 evaluable healthy adult volunteers.
Adverse events were monitored and recorded.

- subjects with study-drug related Cough (both, human): 12%
- subjects with study-drug related Dizziness (both, human): 12%
- subjects with study-drug related Dry mouth (both, human): 12%
- subjects with study-drug related Dysgeusia (both, human): 8%
- subjects with study-drug related Dyspnoea (shortness of breath) (both, human): 16%
- subjects with study-drug related Headache (both, human): 8%
- subjects with study-drug related Oropharyngeal discomfort (both, human): 40%
- average events per subject (human): 2
- probably study-drug related oropharyngeal discomfort (events) (human): 4
- study-drug related paresthesia oral (events) (human): 3
- average events per subject (human, iv): 7
- study-drug related application site coldness (occurrences) (human, iv): 2
- study-drug related dizziness (events) (human, iv): 6
- study-drug related headache (events) (human, iv): 5
- study-drug related peripheral coldness, palpitations, and chest discomfort, occurrences each (human, iv): 2
- systolic BP in subject whose IV infusion was interrupted for hypotension (human, iv): < 65 mmHg
- remaining study-drug related events (cough, dysphonia, dyspnoea, oral hypoesthesia, chest discomfort) (human, po): occurred once in 1 subject each
Compound: O=C(NCC1CCCCN1)c1cc(OCC(F)(F)F)ccc1OCC(F)(F)F (stereo not shown) [flecainide]
- Number of TEAEs (both, human): 59
- Subjects with at least one Moderate or Severe TEAE (both, human): 2 (8) n (%)
- Subjects with at least one Study Drug Related TEAE (both, human): 22 (80) n (%)
- Subjects with at least one Study Drug Related, Moderate or Severe TEAE (both, human): 1 (4) n (%)
- Subjects with at least one TEAE (both, human): 22 (88) n (%)
- TEAE: Catheter site pain (both, human): 2 (8) [2] n (%) [events]
- TEAE: Cough (both, human): 3 (12) [4] n (%) [events]
- TEAE: Diarrhoea (both, human): 2 (8) [2] n (%) [events]
- TEAE: Dizziness (both, human): 3 (12) [3] n (%) [events]
- TEAE: Dry mouth (both, human): 3 (12) [3] n (%) [events]
- TEAE: Dysgeusia (both, human): 2 (8) [2] n (%) [events]
- TEAE: Dyspnoea (both, human): 6 (24) [6] n (%) [events]
- TEAE: Gastrointestinal disorders (both, human): 8 (32) [11] n (%) [events]
- TEAE: General disorders and administration site conditions (both, human): 3 (12) [4] n (%) [events]
- TEAE: Headache (both, human): 4 (16) [5] n (%) [events]
- TEAE: Nervous system disorders (both, human): 8 (32) [11] n (%) [events]
- TEAE: Oropharyngeal discomfort (both, human): 11 (44) [11] n (%) [events]
- TEAE: Respiratory, thoracic and mediastinal disorders (both, human): 17 (68) [25] n (%) [events]
- duration of the majority of adverse events (both, human): 15 to 90 min
- TEAE: Hypoaesthesia oral (human, 2 mg/kg): 1 (14) [1] n (%) [events]
- TEAE: Paraesthesia oral (human, 2 mg/kg): 3 (43) [3] n (%) [events]
- severe and moderate AEs probably related to study drug (human, iv): 1 severe and 2 moderate intensity AEs
- Number of Moderate or Severe TEAEs (human, iv, 2 mg/kg): 4
- Number of Related TEAEs (human, iv, 2 mg/kg): 35
- Number of Related, Moderate or Severe TEAEs (human, iv, 2 mg/kg): 4
- Number of SAEs (human, iv, 2 mg/kg): 0
- Number of Subjects with at least one Moderate or Severe TEAE (human, iv, 2 mg/kg): 2 (29) n (%)
- Number of Subjects with at least one Related TEAE (human, iv, 2 mg/kg): 7 (100) n (%)
- Number of Subjects with at least one Related, Moderate or Severe TEAE (human, iv, 2 mg/kg): 2 (29) n (%)
- Number of Subjects with at least one SAE (human, iv, 2 mg/kg): 0 n (%)
- Number of Subjects with at least one TEAE (human, iv, 2 mg/kg): 7 (100) n (%)
- Number of Treatment-Emergent Adverse Events (human, iv, 2 mg/kg): 49
- TEAE: Application site coldness (human, iv, 2 mg/kg): 2 (29) [2] n (%) [events]
- TEAE: Catheter site pain (human, iv, 2 mg/kg): 2 (29) [2] n (%) [events]
- TEAE: Chest discomfort (human, iv, 2 mg/kg): 1 (14) [3] n (%) [events]
- TEAE: Dizziness (human, iv, 2 mg/kg): 6 (86) [6] n (%) [events]
- TEAE: Fatigue (human, iv, 2 mg/kg): 2 (29) [2] n (%) [events]
- TEAE: Gastrointestinal disorders (human, iv, 2 mg/kg): 5 (71) [6] n (%) [events]
- TEAE: General disorders and administration site conditions (human, iv, 2 mg/kg): 4 (57) [13] n (%) [events]
- TEAE: Headache (human, iv, 2 mg/kg): 5 (71) [6] n (%) [events]
- TEAE: Nervous system disorders (human, iv, 2 mg/kg): 7 (100) [13] n (%) [events]
- TEAE: Peripheral coldness (human, iv, 2 mg/kg): 2 (29) [3] n (%) [events]
- TEAE: Respiratory, thoracic and mediastinal disorders (human, iv, 2 mg/kg): 2 (29) [3] n (%) [events]
- TEAE: Vascular disorders (human, iv, 2 mg/kg): 3 (43) [4] n (%) [events]
- fewer TEAEs with IH than IV (human, iv, 2 mg/kg): 4 fold
- AEs occurring more frequently than with placebo: oropharyngeal discomfort, shortness of breath (dyspnoea), cough and dry mouth
- dose dependence of incidence of AEs: appears not to be dose-dependent
- intensity of TEAEs: mild in intensity
- serious adverse events: No serious adverse events were reported
- tolerability of inhalation: well tolerated, and no subject interrupted the inhalation
